Experimental data as given in patent US6380387B1, “4-Pyrimidinyl-n-acyl-l phenylalanines” (Hoffmann-La Roche Inc., priority 1999, dated 2002).

Target: T1, alpha4-beta7 (Homo sapiens, UniProt P13612+P26010)
T1 construct: Sufficient RPMI 8866 cells were removed from stock for assay; endogenous in cells; host or cells: RPMI 8866 cells
T1 sequence (P13612 34-1032): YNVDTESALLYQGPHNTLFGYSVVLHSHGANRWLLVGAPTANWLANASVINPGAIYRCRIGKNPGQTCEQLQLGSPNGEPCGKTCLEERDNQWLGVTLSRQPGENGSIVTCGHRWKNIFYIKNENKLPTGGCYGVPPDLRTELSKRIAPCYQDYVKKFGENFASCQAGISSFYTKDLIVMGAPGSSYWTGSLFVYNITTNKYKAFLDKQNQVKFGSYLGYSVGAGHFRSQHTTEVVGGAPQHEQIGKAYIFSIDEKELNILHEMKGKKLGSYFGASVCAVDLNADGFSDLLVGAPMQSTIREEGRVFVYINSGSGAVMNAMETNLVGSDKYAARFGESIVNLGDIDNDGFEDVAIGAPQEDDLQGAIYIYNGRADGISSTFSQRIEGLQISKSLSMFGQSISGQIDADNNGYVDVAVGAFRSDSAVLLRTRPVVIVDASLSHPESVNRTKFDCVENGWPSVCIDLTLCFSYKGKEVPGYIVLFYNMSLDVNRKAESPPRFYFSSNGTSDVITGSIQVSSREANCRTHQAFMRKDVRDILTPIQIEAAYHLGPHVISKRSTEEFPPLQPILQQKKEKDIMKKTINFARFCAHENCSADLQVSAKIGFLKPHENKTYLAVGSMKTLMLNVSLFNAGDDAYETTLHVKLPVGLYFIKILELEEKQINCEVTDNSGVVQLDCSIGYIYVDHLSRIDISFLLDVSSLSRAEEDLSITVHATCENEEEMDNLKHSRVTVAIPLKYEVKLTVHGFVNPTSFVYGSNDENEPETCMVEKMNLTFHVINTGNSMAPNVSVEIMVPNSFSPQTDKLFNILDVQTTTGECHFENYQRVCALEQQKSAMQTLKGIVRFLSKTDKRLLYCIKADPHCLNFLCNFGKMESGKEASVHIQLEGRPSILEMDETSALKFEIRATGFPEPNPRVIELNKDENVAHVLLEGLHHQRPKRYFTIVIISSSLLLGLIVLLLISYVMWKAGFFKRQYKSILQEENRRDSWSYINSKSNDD
T1 sequence (P26010 20-798): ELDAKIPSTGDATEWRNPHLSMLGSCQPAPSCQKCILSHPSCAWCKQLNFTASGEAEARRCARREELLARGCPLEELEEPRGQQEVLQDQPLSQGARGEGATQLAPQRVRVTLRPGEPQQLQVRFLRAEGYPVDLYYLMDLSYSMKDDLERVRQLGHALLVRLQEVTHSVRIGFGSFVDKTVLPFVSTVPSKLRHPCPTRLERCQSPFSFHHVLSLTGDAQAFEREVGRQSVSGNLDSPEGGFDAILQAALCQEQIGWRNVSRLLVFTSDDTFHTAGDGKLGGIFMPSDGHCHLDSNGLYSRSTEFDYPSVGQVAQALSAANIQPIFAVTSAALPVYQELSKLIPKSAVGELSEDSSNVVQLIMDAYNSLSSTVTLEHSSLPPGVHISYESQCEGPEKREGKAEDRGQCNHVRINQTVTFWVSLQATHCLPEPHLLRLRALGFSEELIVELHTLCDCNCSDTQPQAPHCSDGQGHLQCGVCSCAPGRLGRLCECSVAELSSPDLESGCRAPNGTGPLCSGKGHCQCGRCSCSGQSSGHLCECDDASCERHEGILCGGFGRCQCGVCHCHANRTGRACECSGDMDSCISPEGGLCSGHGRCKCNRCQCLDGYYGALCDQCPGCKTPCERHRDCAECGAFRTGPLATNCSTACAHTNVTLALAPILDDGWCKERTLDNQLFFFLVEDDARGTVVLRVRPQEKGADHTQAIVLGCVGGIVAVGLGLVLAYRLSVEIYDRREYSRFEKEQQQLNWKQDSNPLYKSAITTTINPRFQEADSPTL
Assay: Alpha4-Beta7 Assay (MadCAM/RPMI 8866 cell adhesion)
Format: cell-based
Details: calcein labeled RPMI 8866 cells adhering to immobilized MadCAM
Experimental: Alpha4-Beta7 Assay Protocol
Two weeks to one day prior to the assay, Nunc high-binding F96 Maxisorp immuno plates, #442404 or #439454, were coated with 25 ng/well (0.25 μg/ml) MadCAM in a volume of 100 μl/well. The plates were covered with sealer and wrapped in saran wrap followed by incubation in the refrigerator for at least 24 hours. The coating buffer employed was: 10 mM carbonate/bicarbonate buffer made up from: 0.8 g/L sodium carbonate and 1.55 g/L sodium bicarbonate adjusted to pH 9.6 with 1 N HCl. Assay buffers consisted of the following:
Plates were washed 2× with wash buffer and then blocked at room temperature for at least 1 hour with Blocking Buffer. Sealed plates were sometimes blocked overnight in the refrigerator. Plates were then washed with PBS and hand blotted dry. Remaining liquid was aspirated from the wells.
Sufficient RPMI 8866 cells were removed from stock for assay (2×10^6 cells/ml×10 ml/plate×number of plates) and placed in a centrifuge tube. The tubes were filled to volume with PBS and were spun at 200×G for 8 minutes. The buffer was poured off and the cells were resuspended to 10×10^6/ml in PBS and a stock solution of calcein in DMSO (5mg/mL) was added at 51 μl/ml of cell suspension. The suspension was incubated for 30 minutes at 37° C. in dark. The cells were then washed with PBS. The PBS was poured off and the cells resuspended in cell buffer at a concentration of 2×10^6 cells/mL for plating in the assay.
Stock solution of test compounds at 25× first dilution desired in 100% DMSO were prepared. First dilutions for the standard, as well as test compounds, were 1:25 into straight Binding Buffer, while the remaining serial dilutions were into Dilution Buffer (Binding Buffer/4% DMSO). Stock concentrations and dilutions of compounds for screening were determined by anticipated activity.
For the assay, 129 μl Binding Buffer was plated into first row of wells and 100 μl Dilution Buffer was plated into remaining wells. A 5.44 μl aliquot of each compound was pipetted into appropriate, labeled wells, in triplicate. The compounds were next diluted down the plate (34 μl+100 μl=>4-fold dilution). For controls, 100 μl of Dilution Buffer 100 μl Cell Buffer were plated into the nonspecific background wells (no cells, no compound) and 100 μl Dilution Buffer+100 μl cells were plated into the total binding wells (no compound=100% binding). Labeled cells at 2×10^6 cells/ml, 100 μl/well (=2×10^5 cells/well) were added to each well containing compound. The plates were sealed and incubated in the dark for 45 minutes at room temperature. Following incubation, unbound cells were removed by adding 150 μl PBS/well. The plates were inverted, blotted onto paper towels and washed by gently adding 200 μl PBS to wells and blotting again. Remaining buffer was carefully aspirated from the wells. A final 100 μl PBS was added to each well.
The plates were then read for fluorescence intensity on a Cytofluor 2300 (Millipore) fluorecence measurement system (excitation=485 nm, emission=530 nm). IC50s of each compound were determined by linear regression analysis.

| IC50 [µM] | SMILES |
| --- | --- |
| < 10 | Cc1cc(C[C@H](NC(=O)c2c(C)cccc2Cl)C(=O)O)ccc1-c1cn(C)c(=O)n(C)c1=O [Example 24, N-[(2-chloro-6-methylphenyl)carbonyl]-4-(1,3-dimethyl-2,4-dioxo-5-pyrimidinyl)-3-methyl-L-phenylalanine] |
| < 10 | Cc1cc(C[C@H](NC(=O)c2c(Cl)cccc2Cl)C(=O)O)ccc1-c1cn(C)c(=O)n(C)c1=O [Example 25, N-[(2,6-dichlorophenyl)carbonyl]-4-(1,3-dimethyl-2,4-dioxo-5-pyrimidinyl)-3-methyl-L-phenylalanine] |
| < 10 | Cc1cc(C[C@H](NC(=O)c2c(Cl)cccc2Cl)C(=O)O)ccc1-c1c(C)n(C)c(=O)n(C)c1=O [Example 26, N-[(2,6-dichlorophenyl)carbonyl]-4-(1,3,6-trimethyl-2,4-dioxo-5-pyrimidinyl)-3-methyl-L-phenylalanine] |
| < 10 | CCOC(=O)[C@H](Cc1ccc(-c2c(C)n(C)c(=O)n(C)c2=O)cc1)NC(=O)c1c(Cl)cccc1Cl [Example 27, N-[(2,6-dichlorophenyl)carbonyl]-4-(1,3,6-trimethyl-2,4-dioxo-5-pyrimidinyl)-L-phenylalanine ethyl ester] |
